According to patent US9289417B2, “Compounds and methods for the modulation of sulfilimine bond formation” (VANDERBILT UNIVERSITY, priority 2009, dated 2016):
“Also recorded” adds a separate entry of the source.

Columns and labels:
[1] = tested on: type IV collagen NC1 domain sulfilimine crosslink formation; test: Type IV collagen NC1 domain sulfilimine crosslink (dimer) formation in matrix of cultured PF HR9 cells, western blot; format: cell-based, mouse; settings: for effect on NC1 domain sulfilimine crosslink (dimer) formation, in words: increasing concentrations, PF HR9 cell culture matrix, western blot; for inhibition of NC1 dimer (D) formation: PF HR9 mouse endodermal cell matrix, anti-α2 chain western blot
Method: FIG. 9. Methimazole and Phloroglucinol inhibit type IV collagen NC1 domain sulfilimine crosslink formation. NC1 domains were prepared from collagenase digests of extracellular matrix derived from cultured PF HR9 mouse endodermal cells and detected by western blotting with an anti-α2 chain monoclonal antibody.
Standard drug discovery strategies may identify other agents that specifically target the sulfilimine cross-link system with minimal inhibition of other peroxidase systems. In addition, a monoclonal antibody can be generated to inhibit enzyme activity. These agents represent anti-angiogenic oncologic agents that can be translated to clinical medicine with broad application.

human peroxidasin (PXDN) = molecular target: T1, human peroxidasin (PXDN) (Homo sapiens, UniProt Q92626); test: NC1 domain dimerization by HEK293 cells stably transfected with human peroxidasin plated on monomeric PFHR9 matrix; format: cell-based; settings: concentration not given
T1 construct: expressed in transfected cells; host or cells: HEK293 (stably transfected)
T1 sequence (Q92626 27-1479): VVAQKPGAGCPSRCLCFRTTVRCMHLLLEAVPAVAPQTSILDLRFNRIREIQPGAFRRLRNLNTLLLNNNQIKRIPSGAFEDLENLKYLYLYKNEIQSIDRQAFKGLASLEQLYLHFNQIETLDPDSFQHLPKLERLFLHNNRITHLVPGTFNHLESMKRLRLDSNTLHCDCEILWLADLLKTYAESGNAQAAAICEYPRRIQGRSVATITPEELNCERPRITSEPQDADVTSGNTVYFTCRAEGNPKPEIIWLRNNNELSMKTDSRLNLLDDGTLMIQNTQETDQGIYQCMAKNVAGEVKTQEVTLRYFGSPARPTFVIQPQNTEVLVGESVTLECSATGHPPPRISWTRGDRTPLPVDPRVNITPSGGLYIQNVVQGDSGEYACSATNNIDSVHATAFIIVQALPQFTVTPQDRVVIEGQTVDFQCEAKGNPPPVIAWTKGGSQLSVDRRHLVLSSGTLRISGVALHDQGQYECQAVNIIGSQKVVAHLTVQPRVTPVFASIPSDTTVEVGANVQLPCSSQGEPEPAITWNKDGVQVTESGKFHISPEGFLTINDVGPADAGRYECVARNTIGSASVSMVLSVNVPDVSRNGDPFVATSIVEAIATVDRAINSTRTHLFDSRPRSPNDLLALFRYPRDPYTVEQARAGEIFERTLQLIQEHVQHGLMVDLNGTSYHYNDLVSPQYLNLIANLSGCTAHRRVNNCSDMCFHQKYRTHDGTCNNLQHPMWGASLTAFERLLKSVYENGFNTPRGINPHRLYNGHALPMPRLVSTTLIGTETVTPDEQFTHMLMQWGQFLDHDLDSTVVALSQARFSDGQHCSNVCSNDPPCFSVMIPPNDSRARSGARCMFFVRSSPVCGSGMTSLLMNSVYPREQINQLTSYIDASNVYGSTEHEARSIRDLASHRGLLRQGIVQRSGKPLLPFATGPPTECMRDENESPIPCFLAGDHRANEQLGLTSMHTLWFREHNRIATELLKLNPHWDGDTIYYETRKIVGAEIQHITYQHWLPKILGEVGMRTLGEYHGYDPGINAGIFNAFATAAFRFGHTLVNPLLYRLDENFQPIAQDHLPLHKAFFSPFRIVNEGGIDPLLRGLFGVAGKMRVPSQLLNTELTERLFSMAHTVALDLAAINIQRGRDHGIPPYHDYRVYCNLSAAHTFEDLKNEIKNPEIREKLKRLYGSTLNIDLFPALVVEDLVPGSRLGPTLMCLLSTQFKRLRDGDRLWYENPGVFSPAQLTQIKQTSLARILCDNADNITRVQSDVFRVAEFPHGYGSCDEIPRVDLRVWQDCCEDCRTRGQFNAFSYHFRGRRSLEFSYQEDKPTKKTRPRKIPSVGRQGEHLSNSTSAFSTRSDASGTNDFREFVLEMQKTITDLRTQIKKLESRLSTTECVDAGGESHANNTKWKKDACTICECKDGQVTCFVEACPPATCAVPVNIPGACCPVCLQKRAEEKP
From the text: FIG. 11. PXDN mediates NC1 domain dimerization. HEK293 stably transfected with human peroxidasin (PXDN) plated on top of monomeric PFHR9 matrix leads to NC1 domain dimerization (middle lanes). […] Placental basement membrane (PBM) NC1 domain is shown for comparison.
Based on these findings, they pursued peroxidasin, a known matrix peroxidase, as a possible candidate for collagen IV dimer and presumably sulfilimine bond formation. […] Peroxidasin was also identified as an endogenous component of the extracellular matrix produced by the HR-9 cells with the use of mass spectrometry.

Structure (SMILES) | effect on NC1 domain sulfilimine crosslink (dimer) formation, in words [1] | effect on NC1 domain sulfilimine crosslink (dimer) formation, in words ([1]; listed as methimazole) | inhibition of NC1 dimer (D) formation ([1]; Phloroglucinol at 5 uM) | inhibition of NC1 dimer (D) formation ([1]; Phloroglucinol at 50 uM) | effect on NC1 domain sulfilimine crosslink (dimer) formation, in words ([1]; listed as phloroglucinol) | NC1 domain dimerization by PXDN transfected HEK293 cells in the presence of inhibitor (human peroxidasin (PXDN))
Cn1cc[nH]c1=S [Methimazole, methimazole] | decreases crosslinked NC1 dimer (D) while increasing non-crosslinked monomer (M) | inhibit cross-link formation | – | – | – | –
Oc1cc(O)cc(O)c1 [Phloroglucinol, phloroglucinol] | inhibits dimer (D) formation more potently | – | near complete inhibition | complete inhibition | inhibit cross-link formation | No dimer formation was observed; also recorded: fail to lead to dimerization
